From PMC11800159, “Insertion of a Divergent GAF-like Domain Defines a Novel Family of YcgR Homologues That Bind c-di-GMP in Leptospirales” (ACS Omega, 2025)

Molecular target: T1, YcgRLIC_11920
T1 construct: gene LIC_11920; full-length protein, N-terminal 6x histidine tag
Assay: ITC ([…] °C; […] at […] °C), […] c-di-GMP:protein stoichiometry
Format: binding

Work on `Nc1nc2c(ncn2[C@@H]2O[C@@H]3COP(=O)(O)O[C@H]4[C@@H](O)[C@H](n5cnc6c(=O)[nH]c(N)nc65)O[C@@H]4COP(=O)(O)O[C@H]3[C@H]2O)c(=O)[nH]1` [c-di-GMP] yielded a Kd of 60 nM.
